For two molecules, IC50 results are on record in US6677333B1, “2H-phthalazin-1-one derivatives and drug containing its derivatives as active ingredient” (Ono Pharmaceutical Co., Ltd., priority 1999, dated 2004).

Where a name gives a salt, the structure may show the parent alone.

The target in the experiment is T1, PARP (Homo sapiens, UniProt P09874).
T1 construct: purchased TREVIGEN
Kind of experiment: Enzyme assay in vitro (PARP inhibitory activity). It is filed as biochemical. The settings on record: PARP (TREVIGEN), activated DNA, 10 minutes reaction, 100% of control = distilled water; example 5 tested as trifluoro acetate. The method, then:
The below procedure was carried out with 96 well plate. The reaction mixture contained 50 mM Tris/HCl (pH 8.0, WAKO), 10 mM MgCl2, 5 mM dithiothreitol (sigma), and 0.5 mg/mL activated DNA in 80 μL. The 10 μL of test compound was added to the reaction mixture and the reaction was started by addition of 10 μL of […] PARP (TREVIGEN). The reaction was terminated at 10 minutes by addition of 100 μL of 20% trichloroacetic acid. The reaction product was collected on a glass fiber filter (GF/C, PACKARD). The radioactivity was measured by topcount (PACKARD). Inhibitory activity of the compound was represented by 50% inhibitory concentration (IC50) calculated 100% of control (distilled water).

T1 sequence (P09874 whole entry): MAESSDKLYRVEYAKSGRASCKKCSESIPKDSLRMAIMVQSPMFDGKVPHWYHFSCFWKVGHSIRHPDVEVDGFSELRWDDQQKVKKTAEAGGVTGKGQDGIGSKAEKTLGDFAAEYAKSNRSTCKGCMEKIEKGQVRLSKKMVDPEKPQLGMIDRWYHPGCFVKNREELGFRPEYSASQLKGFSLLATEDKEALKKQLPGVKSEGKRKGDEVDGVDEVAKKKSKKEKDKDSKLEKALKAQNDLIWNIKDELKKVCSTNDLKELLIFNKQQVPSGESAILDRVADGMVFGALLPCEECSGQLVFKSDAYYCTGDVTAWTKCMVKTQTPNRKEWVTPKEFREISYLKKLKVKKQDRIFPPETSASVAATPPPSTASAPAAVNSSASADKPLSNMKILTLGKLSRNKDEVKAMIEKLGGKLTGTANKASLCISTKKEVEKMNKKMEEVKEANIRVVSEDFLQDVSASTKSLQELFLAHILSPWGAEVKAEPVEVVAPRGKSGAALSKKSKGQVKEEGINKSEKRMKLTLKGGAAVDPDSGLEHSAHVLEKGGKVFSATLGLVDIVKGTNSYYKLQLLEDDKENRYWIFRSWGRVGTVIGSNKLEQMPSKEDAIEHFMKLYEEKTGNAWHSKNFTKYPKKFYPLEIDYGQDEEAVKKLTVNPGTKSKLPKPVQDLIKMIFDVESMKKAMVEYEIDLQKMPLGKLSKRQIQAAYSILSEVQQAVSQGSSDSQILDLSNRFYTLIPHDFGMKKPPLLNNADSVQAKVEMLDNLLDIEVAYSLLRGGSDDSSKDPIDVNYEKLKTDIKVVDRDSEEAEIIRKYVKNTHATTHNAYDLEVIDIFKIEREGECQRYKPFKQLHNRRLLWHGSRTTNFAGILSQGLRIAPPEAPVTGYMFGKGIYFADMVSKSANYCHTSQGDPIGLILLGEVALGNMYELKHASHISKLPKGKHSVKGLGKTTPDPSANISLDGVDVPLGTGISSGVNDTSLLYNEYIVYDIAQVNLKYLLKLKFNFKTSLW

The molecule `NCCSCC(=O)Nc1cccc(-c2n[nH]c(=O)c3ccccc23)c1` [5(10), 4-(3-(2-(2-Aminoethylthio)acetylamino)phenyl)-2H-phthalazin-1-one Hydrochloride] yielded an IC50 of 50 nM.
As for `NCCCCC(=O)Nc1cccc(-c2n[nH]c(=O)c3ccccc23)c1` [compound 5], the IC50 amounted to 42 nM.

A word on the IC50: it is the concentration that inhibits the measured activity by half. A lower IC50 goes with greater potency in that assay.
